pIC50: −log10 of the molar value.
Experiments:
BKPyV = BKPyV infection of RPTE/TERT1 cells, immunofluorescence count of LTAg / VP1 positive cells; format: cell-based, BK polyomavirus; details: 48 hpi; for early gene (LTAg) expression, LTAg positive cells as a proportion of DAPI-positive cells / late gene (VP1) expression, VP1 positive cells as a proportion of DAPI-positive cells: particularly at double proliferative IC50 (20 µM PF-9366, 514 nM AG-270), MOI 1
Description: (A) Effect of PF-9366 on viral early gene expression: Cells were infected with BKPyV (MOI 1) in media containing appropriate drug concentrations. At 1 hpi infectious media was removed, cells were washed and fresh media with appropriate drug concentrations was added. Cells were formaldehyde fixed at 48 hpi and stained for DAPI and LTAg expression and detected by fluorescence microscopy. The number of infected LTAg positive cells were recorded, normalized to cell number. n=3.
Effect of drug treatment on cellular replication and survival and viral early gene expression: Cells were infected with BKPyV (MOI 1) in media containing appropriate drug concentrations. At 1 hpi infectious media was removed, cells were washed and fresh media with appropriate drug concentrations was added. Cells were formaldehyde fixed at 48 hpi and stained for nuclear DAPI and LTAg expression, then detected by fluorescence microscopy. The number of cells per well were determined through DAPI analysis (i) Effect of drug treatment on viral early and late gene expression: The number of infected cells were determined by LTAg (early gene) and VP1 (late gene) expression (ii).
Treatment began 3 hours prior to infection and continued throughout infection. Cells were infected with BKPyV (MOI 1), at 1 hpi cells were washed with PBS and replenished with fresh drug treated media. At 48 hpi cells were fixed with 3% formaldehyde and stained for LTAg expression, and the nuclei counterstained with DAPI. The number of LTAg positive cells were counted and normalised to the total cell number in each condition, and the fold change in proportion of LTAg positive cells for each concentration of PF-9366 was normalised to untreated control.
To investigate whether MAT2A inhibition by a structurally different inhibitor to PF-9366 could cause similar effects, the effect of AG-270 on BKPyV infection was investigated. As above, drugs were used to treat cells from 3 hours prior to infection. Drug concentrations used were the IC50 value defined by inhibition of cell proliferation (proliferative IC50) or double the proliferative IC50, and DMSO was used as a control. Cells were infected with BKPyV (MOI 1), at 1 hpi cells were washed and fresh drug-containing media was added. At 48 hpi cells were fixed in 3% formaldehyde and stained for DAPI, viral early gene LTAg, and viral late gene VP1. The number of cells in each condition were counted and normalised to DMSO treated cells (FIG. 4A(i)). The number of cells represents both cell viability, and the ability of the drug in question to inhibit cellular proliferation.
For BKPyV infections, RPTE/TERT1, RPTE/TERT1-Cas9 or RPTE/TERT1 MAT2A KO cells were infected with BKPyV at either a multiplicity of infection (MOI) of 5 for growth curves or an MOI of 3 or 1 for all other experiments, diluted in appropriate medium. At 1 hour post infection (hpi) medium was removed, cells were washed twice with phosphate-buffered saline (PBS), and fresh medium was added with or without inhibitors. At 24, 48, 72 or 96 hpi cells were either harvested for western blot, RT qPCR or virus titre by FFU assay, or fixed for immunofluorescence analysis.
For fluorescence intensity analysis, 20 fields of view were captured for each experiment. All quantification analyses were carried out using ImageJ and an optimised robust automated detection pipeline Schindelin et al. (Nat Methods. 2012 Jun. 28; 9 (7): 676-82). […] LTAg-staining patterns across each field of view were measured by quantifying the fluorescence intensity using the Mean Grey Value (MGV) function of ImageJ and averaging the results for each experimental condition. Individual cell fluorescence intensity was determined by drawing polygon selections around each LTAg-positive nuclei in ImageJ and measuring the nuclear area, MGV and integrated density, then doing the same for background areas close to each nuclei measured. […]

cell proliferation = details: value used to set treatment concentration; read-out: proliferative IC50; cited from earlier work
Zika African strain = assay: Western blot of Zika E protein in VERO E6 cells, African strain; format: cell-based, Zika virus; details: 20 μM, MOI >10, 48 hrs
Description: (B) Zika: VERO E6 cells were plated. The following day 20 μM PF-9366 or DMSO control was added to media. After 3 hrs cells were infected with Zika African strain, American Strain or Mock infected (MOI >10). After 48 hrs cells were harvested by scraping, pelleted and lysed into lysis buffer. Western blot was then conducted on the lysed cells. Protein embedded SDS-PAGE gels were transferred to membranes overnight and then probed for Zika E protein and GAPDH as a control.
For Flavivirus infections VERO E6 cells were infected with either African (Afn) or American (Amer) Zika at a multiplicity of infection (MOI) greater than 10, diluted in appropriate medium. At 1 hour post infection (hpi) medium was removed, cells were washed twice with phosphate-buffered saline (PBS), and fresh medium was added. At 48 hpi cells were either harvested for western blot.
Cell lysate preparation and western blots were performed as described in Ren et al. (J Gen Virol. 2012 February; 93 (Pt 2): 319-329). Primary antibodies used were ab53977 (VP1), PAb416 (LTAg), sc-166452 (MAT2A/1A), ab110226 (VP16), sc-53070 (ICP0), anti-Zika E Protein, and either anti-GAPDH or anti-tubulin as a loading control, followed by IRDye 680LT-, or IRDye 800CW-conjugated secondary antibodies. Imaging was performed using the LI-COR Odyssey Infrared Imaging system. Quantification was performed using LI-COR Image Studio Software. […]

COc1ccc(-c2c(Nc3ccccn3)[nH]c3c(C4=CCCCC4)c(-c4ccccc4)nn3c2=O)cc1 [AG-270]
early gene (LTAg) expression, LTAg positive cells as a proportion of DAPI-positive cells (BKPyV): reduced | late gene (VP1) expression, VP1 positive cells as a proportion of DAPI-positive cells (BKPyV): reduced | pIC50 (cell proliferation): 6.59

CN(C)CCc1nnc2cc(-c3ccccc3)c3cc(Cl)ccc3n12 [PF-9366]
reduction in LTAg positive cells (BKPyV; 40 μM, BKPyV MOI 1, normalised to untreated control): ~95% | number of LTAg positive cells (BKPyV; PF-9366 concentrations of 5 μM and above, BKPyV MOI 1, treatment from 3 h prior to infection): significantly reduced | early gene (LTAg) expression, LTAg positive cells as a proportion of DAPI-positive cells (BKPyV): reduced | late gene (VP1) expression, VP1 positive cells as a proportion of DAPI-positive cells (BKPyV): reduced | pIC50 (cell proliferation): 5.00 | viral protein expression (Zika E protein), African strain (Zika African strain): reduction

Source: patent US20250221981A1, “MAT2A INHIBITOR AND/OR TSG101 INHIBITOR FOR USE IN ANTIVIRAL THERAPY” (CAMBRIDGE ENTERPRISE LIMITED, priority 2022, published 2025)
